Data reported in BindingDB's records for doi:10.1016/j.ejmech.2014.06.017 (University of Messina, 2014).

Assay: Inhibition of PGPH-like activity of 20S proteasome in human erythrocytes using Z-Leu-Leu-Glu-AMC as substrate by fluorescence assay

| Structure (SMILES) | Ki |
| --- | --- |
| CC(C)C[C@H](NC(=O)CCn1ccc2ncccc2c1=O)B(O)O | 690 nM |
| CC(C)C[C@H](NC(=O)Cn1ccc2ccccc2c1=O)B(O)O | 990 nM |
| CC(C)C[C@H](NC(=O)CCn1ccc2ccccc2c1=O)B(O)O | 240 nM |
| COc1cc2ccn(CCC(=O)N[C@@H](CC(C)C)B(O)O)c(=O)c2cc1OC | 1250 nM |
| CC(C)C[C@H](NC(=O)Cn1ccc2ccc(Br)cc2c1=O)B(O)O | 310 nM |
| CC(C)C[C@H](NC(=O)CCn1ccc2ccc(Br)cc2c1=O)B(O)O | 2040 nM |
